Assay results: PubChem BioAssay AID248 (DTP/NCI, 2004)
“And” between values parts separate entries of the source, which are not always exact repeats. Equal entries are not always repeated. Toxic doses and inconclusive results are not listed. Cut-off read from the data, not from the text of the source: active = T/C of 150% or more; inactive = T/C below 125%.

Tested on: L1210 leukemia ip in BDF1 mice, survival T/C
Test: NCI In Vivo Anticancer Drug Screen. Data for tumor model L1210 Leukemia (intraperitoneal) in B6D2F1 (BDF1) mice
Settings: endpoint: mean survival time, higher = longer survival
Method in brief: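 Transplantable tumor model; survival measured in treated vs vehicle control mice. Value = treated/control.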

[1] = dose: 25.0 mg/kg/injection, schedule: Q01DX009 (ip), vehicle: Klucel (hydroxypropylcellulose) (HPC)
[2] = dose: 50.0 mg/kg/injection, schedule: Q01DX009 (ip), vehicle: Klucel (hydroxypropylcellulose) (HPC)
[3] = dose: 100.0 mg/kg/injection, schedule: Q01DX009 (ip), vehicle: Klucel (hydroxypropylcellulose) (HPC)
[4] = dose: 100.0 mg/kg/injection, schedule: Q01DX009 (ip), vehicle: saline with Tween-80
[5] = dose: 100.0 mg/kg/injection, schedule: Q04DX003 (ip), vehicle: Klucel (hydroxypropylcellulose) (HPC)
[6] = dose: 200.0 mg/kg/injection, schedule: Q01DX009 (ip), vehicle: saline with Tween-80
[7] = dose: 200.0 mg/kg/injection, schedule: Q04DX003 (ip), vehicle: Klucel (hydroxypropylcellulose) (HPC)
[8] = dose: 400.0 mg/kg/injection, schedule: Q04DX003 (ip), vehicle: Klucel (hydroxypropylcellulose) (HPC)
[9] = dose: 100.0 mg/kg/injection, schedule: Q04DX002 (ip), vehicle: saline with Tween-80
[10] = dose: 100.0 mg/kg/injection, schedule: Q01DX001 (ip), vehicle: Klucel (hydroxypropylcellulose) (HPC)
[11] = dose: 200.0 mg/kg/injection, schedule: Q01DX001 (ip), vehicle: Klucel (hydroxypropylcellulose) (HPC)
[12] = dose: 400.0 mg/kg/injection, schedule: Q01DX001 (ip), vehicle: Klucel (hydroxypropylcellulose) (HPC)
[13] = dose: 100.0 mg/kg/injection, schedule: Q04DX003 (ip), vehicle: saline with Tween-80
[14] = dose: 200.0 mg/kg/injection, schedule: Q04DX003 (ip), vehicle: saline with Tween-80
[15] = dose: 400.0 mg/kg/injection, schedule: Q04DX003 (ip), vehicle: saline with Tween-80
[16] = dose: 200.0 mg/kg/injection, schedule: Q01DX009 (ip), vehicle: Klucel (hydroxypropylcellulose) (HPC)
[17] = dose: 400.0 mg/kg/injection, schedule: Q01DX009 (ip), vehicle: Klucel (hydroxypropylcellulose) (HPC)
[18] = dose: 100.0 mg/kg/injection, schedule: Q04DX002 (ip), vehicle: Klucel (hydroxypropylcellulose) (HPC)
[19] = dose: 200.0 mg/kg/injection, schedule: Q04DX002 (ip), vehicle: Klucel (hydroxypropylcellulose) (HPC)
[20] = dose: 400.0 mg/kg/injection, schedule: Q01DX009 (ip), vehicle: saline with Tween-80

Measured: T/C

CC(C)(O)C#N
inactive: dose: 5.0 mg/kg/injection, schedule: Q01DX001 (ip), vehicle: saline 108 % of control | dose: 10.0 mg/kg/injection, schedule: Q01DX001 (ip), vehicle: saline 102 % of control | dose: 15.0 mg/kg/injection, schedule: Q01DX001 (ip), vehicle: saline 104 % of control

CN=C(NC)c1ccc(NC(=O)c2cc(OC)cc(C(=O)Nc3ccc(C(=NC)NC)cc3)c2)cc1
inactive: dose: 3.75 mg/kg/injection, schedule: Q01DX Z (ip), vehicle: saline 100 % of control | dose: 7.5 mg/kg/injection, schedule: Q01DX Z (ip), vehicle: saline 98 % of control | dose: 15.0 mg/kg/injection, schedule: Q01DX Z (ip), vehicle: saline 98 % of control

O=C(NC(=S)Nc1cccc(Cl)c1)c1ccccc1F
inactive: [1] 87 % of control | [2] 86 % of control | [3] 87 % of control

NC(=O)Nc1ccc(Cl)cc1
inactive: [4] 101 % of control | [5] 99 % of control | [6] 96 % of control | [7] 91 % of control | [8] 102 % of control

COc1cc2ccc3c4ccccc4c[n+](C)c3c2cc1OC
inactive: dose: 18.75 mg/kg/injection, schedule: Q01DX001 (ip), vehicle: saline with Tween-80 106 % of control | dose: 37.5 mg/kg/injection, schedule: Q01DX001 (ip), vehicle: saline with Tween-80 106 % of control | dose: 75.0 mg/kg/injection, schedule: Q01DX001 (ip), vehicle: saline with Tween-80 113 % of control

CCCCCCCCN(C)/N=N/c1nc[nH]c1C(=O)OCC
inactive: dose: 50.0 mg/kg/injection, schedule: Q01DX001 (ip), vehicle: other 94 % of control | dose: 100.0 mg/kg/injection, schedule: Q01DX001 (ip), vehicle: other 105 % of control | dose: 200.0 mg/kg/injection, schedule: Q01DX001 (ip), vehicle: other 113 % of control | dose: 400.0 mg/kg/injection, schedule: Q01DX001 (ip), vehicle: other 105 % of control

CC(C)(C)OOC(=O)CCCl
inactive: [9] 93 % of control | dose: 200.0 mg/kg/injection, schedule: Q04DX002 (ip), vehicle: saline with Tween-80 101 % of control | dose: 400.0 mg/kg/injection, schedule: Q04DX002 (ip), vehicle: saline with Tween-80 101 % of control

CN(C)C(=O)Nc1nc2cc(Cl)c(Cl)cc2[nH]1
inactive: [10] 98 % of control | [11] 100 % of control | [12] 94 % of control

N=C(N)Sc1n[nH]c(=O)[nH]c1=O
inactive: dose: 75.0 mg/kg/injection, schedule: Q01DX001 (ip), vehicle: alcohol 100 % of control | dose: 150.0 mg/kg/injection, schedule: Q01DX001 (ip), vehicle: alcohol 90 % of control

C#CP(CCCC)CCCC
inactive: dose: 25.0 mg/kg/injection, schedule: Q04DX002 (ip), vehicle: saline with Tween-80 97 % of control | dose: 50.0 mg/kg/injection, schedule: Q04DX002 (ip), vehicle: saline with Tween-80 91 % of control | [9] 95 % of control and 102 % of control

CCO/C=C1\SC(=S)N(Cc2ccccc2)C1=O
inactive: [13] 94 % of control | [14] 99 % of control | [15] 102 % of control

O=C(Nc1cccc(Cl)c1)Nc1cccc(Cl)c1
inactive: [3] 94 % of control | [5] 102 % of control | [16] 108 % of control | [7] 93 % of control | [17] 101 % of control | [8] 100 % of control

Cc1cc(C)c2c(c1C)OC(C)(C)C=C2
inactive: [3] 98 % of control | [5] 98 % of control | [16] 100 % of control | [7] 107 % of control | [17] 97 % of control | [8] 100 % of control

CC1=NCCc2cc3[nH]c4ccccc4c3cc21
inactive: [1] 102 % of control | dose: 25.0 mg/kg/injection, schedule: Q04DX003 (ip), vehicle: Klucel (hydroxypropylcellulose) (HPC) 99 % of control | [2] 96 % of control | dose: 50.0 mg/kg/injection, schedule: Q04DX003 (ip), vehicle: Klucel (hydroxypropylcellulose) (HPC) 104 % of control | [10] 94 % of control | [3] 94 % of control | [5] 100 % of control

COc1cc2c(c(OC)c1OC)CN(CC1COc3ccccc3O1)CC2 (stereo not drawn)
inactive: [13] 98 % of control | [14] 101 % of control | [15] 96 % of control

OB(O)C1=CC(c2ccccc2)(c2ccccc2)N=C1
inactive: [10] 103 % of control | [11] 94 % of control | [12] 92 % of control

Nc1nc(N)c2cc(CCc3ccccc3)ccc2n1
inactive: dose: 50.0 mg/kg/injection, schedule: Q01DX001 (ip), vehicle: carboxymethylcellulose (CMC) 95 % of control | dose: 100.0 mg/kg/injection, schedule: Q01DX001 (ip), vehicle: carboxymethylcellulose (CMC) 95 % of control | [5] 95 % of control | dose: 200.0 mg/kg/injection, schedule: Q01DX001 (ip), vehicle: carboxymethylcellulose (CMC) 101 % of control | [7] 90 % of control

Cc1noc(NC(=O)Nc2ccccc2C(F)(F)F)c1C
inactive: [3] 95 % of control and 103 % of control | [18] 92 % of control and 97 % of control | [16] 92 % of control and 118 % of control | [19] 101 % of control and 119 % of control | [17] 101 % of control | dose: 400.0 mg/kg/injection, schedule: Q04DX002 (ip), vehicle: Klucel (hydroxypropylcellulose) (HPC) 105 % of control and 116 % of control

CC(C)CCCBr
inactive: [4] 101 % of control | [13] 94 % of control | [6] 100 % of control | [14] 95 % of control | [20] 94 % of control | [15] 99 % of control

CC(C)C(=O)NNCc1ccccc1
inactive: dose: 12.5 mg/kg/injection, schedule: Q01DX009 (ip), vehicle: Klucel (hydroxypropylcellulose) (HPC) 106 % of control | [1] 104 % of control | [2] 97 % of control | [3] 92 % of control

O=C(Nc1c(Oc2ccc(Cl)cc2Cl)ccc(Cl)c1S(=O)(=O)O)Nc1c(Oc2ccc(Cl)cc2Cl)ccc(Cl)c1S(=O)(=O)O
inactive: dose: 50.0 mg/kg/injection, schedule: Q04DX003 (ip), vehicle: saline 101 % of control | dose: 100.0 mg/kg/injection, schedule: Q04DX003 (ip), vehicle: saline 97 % of control | dose: 200.0 mg/kg/injection, schedule: Q04DX003 (ip), vehicle: saline 95 % of control

C1=CC2(CC=C1C1=CCC3(C=C1)SCCS3)SCCS2
inactive: dose: 50.0 mg/kg/injection, schedule: Q04DX002 (ip), vehicle: Klucel (hydroxypropylcellulose) (HPC) 108 % of control | [18] 101 % of control | [19] 104 % of control

CN(C)CCCN1c2ccccc2C(C)(C)c2ccccc21
inactive: dose: 50.0 mg/kg/injection, schedule: Q01DX001 (ip), vehicle: saline 96 % of control | dose: 50.0 mg/kg/injection, schedule: Q01DX009 (ip), vehicle: saline with Tween-80 104 % of control | dose: 50.0 mg/kg/injection, schedule: Q01DX009 (ip), vehicle: saline 106 % of control | dose: 100.0 mg/kg/injection, schedule: Q01DX001 (ip), vehicle: saline 96 % of control | [4] 116 % of control | dose: 100.0 mg/kg/injection, schedule: Q01DX009 (ip), vehicle: saline 118 % of control | [13] 107 % of control | dose: 200.0 mg/kg/injection, schedule: Q01DX001 (ip), vehicle: saline 104 % of control | [14] 102 % of control

O=C(N/N=C/c1ccccc1O)c1cc2ccccc2cc1O
inactive: [4] 91 % of control | [6] 86 % of control | [20] 90 % of control

CCC1=C(C)C(=O)C2CCCCC2C1=O (stereo not drawn)
inactive: [10] 105 % of control | dose: 100.0 mg/kg/injection, schedule: Q01DX009 (ip), vehicle: saline sonified 95 % of control | [11] 111 % of control | dose: 200.0 mg/kg/injection, schedule: Q01DX009 (ip), vehicle: saline sonified 97 % of control | [12] 96 % of control | dose: 400.0 mg/kg/injection, schedule: Q01DX009 (ip), vehicle: saline sonified 92 % of control

CNC(=O)NC1C(CO)OC2OC(C)(C)OC21 (stereo not drawn)
inactive: dose: 100.0 mg/kg/injection, schedule: Q04DX002 (ip), vehicle: saline 100 % of control | dose: 200.0 mg/kg/injection, schedule: Q04DX002 (ip), vehicle: saline 97 % of control | dose: 400.0 mg/kg/injection, schedule: Q04DX002 (ip), vehicle: saline 94 % of control
